Values of other authors in PMC9913752, “Proof-of-Concept Study of an Alpha-Fetoprotein-Derived Peptide for the Management of Canine Mammary Cancer” (Animals : an Open Access Journal from MDPI, 2023).
Where a SMILES comes first, the peptide text is derived from it. [ ]: non-standard residue; d: D form. Hyp = O=C(O)[C@@H]1C[C@@H](O)CN1

System: MNU-induced mammary tumors
Details: cited from earlier work
From the text: Table 1 The therapeutic and preventive efficacy of AFPep * in rodent models of mammary cancer. | column: MNU-Induced Mammary Tumors in Sprague Dawley Rats ^2 || As models for preventive interventions, two widely used mammary cancer induction models in rats were studied to assess the cancer prevention capabilities of AFPep.

## CC(C)[C@@H]1NC(=O)[C@@H]2C[C@@H](O)CN2C(=O)[C@H]([C@@H](C)O)NC(=O)[C@H](CCCCN)NC(=O)[C@H](CCC(=O)O)NC(=O)[C@H](CC(N)=O)NC(=O)CNC(=O)[C@@H]2C[C@@H](O)CN2C(=O)[C@H](CC(N)=O)NC1=O [AFPep] (cyclo(EKT[Hyp]VN[Hyp]GN))
MNU 50 mg/kg, AFPep 4 mg/kg s.c. once daily for 23 days from 10 days after MNU, p < 0.05
  MNU-Induced Mammary Tumors in Sprague Dawley Rats, % of Rats with Tumors: 40 * %
Chemically induced model
  latency period of cancer appearance: prolonged
